Assay results as given in the NIST ThermoML archive (doi:10.1016/j.tca.2009.10.001).

Assay: xn = mol fraction of the nth substance listed
Details: 101 kPa, Liquid; for viscosity: Capillary tube (Ostwald / Ubbelohde) method; for speed of sound: Linear variable-path acoustic interferometer; for mass density: Pycnometric method

CC#N [acetonitrile] + Cc1ccccc1
Details | mass density, 298.15 K [kg/m3] | mass density, 303.15 K [kg/m3] | mass density, 308.15 K [kg/m3] | speed of sound, 298.15 K [m/s] | speed of sound, 303.15 K [m/s] | speed of sound, 308.15 K [m/s] | viscosity, 298.15 K [mPa·s] | viscosity, 303.15 K [mPa·s] | viscosity, 308.15 K [mPa·s]
x2 = 0 | 775.3 | 769.9 | 764.7 | 1271.3 | 1251.9 | 1231.7 | 0.3696 | 0.3554 | 0.3414
x2 = 0.0506 | 784.6 | 779 | 773.6 | 1273.8 | 1253.9 | 1233.4 | 0.3809 | 0.3653 | 0.3503
x2 = 0.1082 | 794.1 | 788.4 | 782.9 | 1276.5 | 1256.3 | 1235.5 | 0.394 | 0.3772 | 0.3609
x2 = 0.1704 | 803.3 | 797.5 | 792 | 1279.3 | 1259 | 1238 | 0.408 | 0.39 | 0.3729
x2 = 0.2421 | 812.6 | 806.6 | 801.4 | 1282.4 | 1261.8 | 1240.9 | 0.4241 | 0.4045 | 0.3864
x2 = 0.3228 | 821.8 | 815.7 | 810.5 | 1285.7 | 1265 | 1244.3 | 0.4423 | 0.4211 | 0.4017
x2 = 0.4163 | 830.7 | 824.7 | 819.7 | 1289.2 | 1268.2 | 1247.8 | 0.4625 | 0.44 | 0.4193
x2 = 0.5288 | 839.6 | 833.8 | 828.7 | 1292 | 1270.9 | 1250.7 | 0.486 | 0.4614 | 0.4389
x2 = 0.6577 | 847.5 | 841.9 | 836.9 | 1294.5 | 1273.6 | 1253.5 | 0.5098 | 0.4834 | 0.4591
x2 = 0.8089 | 854.6 | 849.3 | 844.6 | 1296.7 | 1275.9 | 1256.3 | 0.5353 | 0.5069 | 0.4817

CCC#N [propanenitrile] + Cc1ccccc1
Details | mass density, 298.15 K [kg/m3] | mass density, 303.15 K [kg/m3] | mass density, 308.15 K [kg/m3] | speed of sound, 298.15 K [m/s] | speed of sound, 303.15 K [m/s] | speed of sound, 308.15 K [m/s] | viscosity, 298.15 K [mPa·s] | viscosity, 303.15 K [mPa·s] | viscosity, 308.15 K [mPa·s]
x2 = 0 | 775.4 | 769.9 | 765.2 | 1252.4 | 1232.7 | 1213.7 | 0.4107 | 0.3991 | 0.3822
x2 = 0.0668 | 784.4 | 778.8 | 773.9 | 1257.2 | 1237 | 1217.6 | 0.4222 | 0.4087 | 0.3907
x2 = 0.1397 | 793.6 | 787.9 | 783 | 1262.2 | 1241.7 | 1222 | 0.4346 | 0.4194 | 0.4004
x2 = 0.2164 | 802.6 | 796.8 | 791.9 | 1267.3 | 1246.5 | 1226.7 | 0.4476 | 0.4306 | 0.4106
x2 = 0.3011 | 811.7 | 806 | 801.1 | 1272.9 | 1252 | 1232 | 0.4617 | 0.4432 | 0.422
x2 = 0.3905 | 820.5 | 814.9 | 810.1 | 1278.2 | 1257.1 | 1237.1 | 0.4765 | 0.4561 | 0.4341
x2 = 0.4917 | 829.4 | 823.9 | 819.1 | 1283 | 1262.1 | 1242.1 | 0.4927 | 0.4702 | 0.4475
x2 = 0.5989 | 837.7 | 832.3 | 827.6 | 1287.1 | 1266.2 | 1246.3 | 0.5082 | 0.4842 | 0.4606
x2 = 0.7174 | 845.7 | 840.5 | 835.8 | 1291.2 | 1270.4 | 1250.5 | 0.5247 | 0.4989 | 0.4748
x2 = 0.854 | 853.7 | 848.6 | 844 | 1295.2 | 1274.5 | 1255.2 | 0.5434 | 0.5158 | 0.4911
